Laboratory results taken from patent publication US20220233492A1, “METHOD OF PREVENTING OR TREATING POSTOPERATIVE PAIN” (priority 2019, published 2022).
“Also recorded” adds a separate entry of the source.

Tests used:
[1] = double-blinded, randomized preclinical studies with PK/PD correlation analyses; format: in vivo
[2] = tested on: healthy human subjects or subjects undergoing major surgeries; test: safety in healthy human subjects or subjects undergoing major surgeries; format: in vivo
[3] = tested on: postoperative pain, subjects underwent laparoscopic colorectal surgery; test: Example 1: postoperative IV infusion vs placebo after laparoscopic colorectal surgery; format: in vivo, human
Procedure: Subjects who reported a pain intensity score of at least 4 on the NRS (0-10) after regaining consciousness in the post-anesthesia care unit (PACU) were enrolled in the study. The VVZ-149 group received an 8-hours IV infusion at a loading dose of 1.8 mg/kg for 0.5 h followed by a maintenance dose of 1.3 mg/kg/h for 7.5 h, and the placebo group received a placebo with the same dosing regimen. […] The primary-outcome measure, pain intensity, was evaluated using NRS (0-10) at the scheduled time points through 24 hours post-emergence. […] In rescued patients, anxiety was also highly correlated with both depression (r=0.285, p=0.041) and PCS score (r=0.334, p=0.016).

[4] = tested on: postoperative pain, subjects for an open elective abdominoplasty; test: Example 2: IV infusion started before anesthesia induction vs placebo, open elective abdominoplasty; format: in vivo, human
[5] = tested on: postoperative pain, subjects for an elective bunionectomy; test: Example 3: IV infusion after nerve block removal vs placebo, elective bunionectomy; format: in vivo, human
Procedure: The primary-outcome measure, pain intensity, was evaluated using NRS (0-10) at the scheduled time points through 48 hours post-emergence. […] Subjects were given 2 stopwatches to start at the time of the start of the study drug infusion (T=0) and were instructed to stop the first stopwatch when “perceptible pain relief”, and the second stopwatch when “meaningful pain relief” is felt by the Time 12 hr.

[6] = tested on: postoperative pain, subjects underwent laparoscopic or robotic-assisted gastrectomy; test: Example 4: intraoperative start IV infusion vs placebo, laparoscopic or robotic-assisted gastrectomy; format: in vivo, human; settings: for reduction of total amount of opioid consumed vs placebo: p<0.05

With `CCCCOc1c(OC)cc(C(=O)NCC2(N(C)C)CCOCC2)cc1OC` [VVZ-149, 4-butoxy-N-((4-(dimethylamino)tetrahydro-2H-pyran-4-yl)methyl)-3,5-dimethoxybenzamide] the pain relief [1] was “dose-dependent pain relief”, the “sedative or adverse effects” value [1] was “without significant sedative or adverse effects” and the anti-allodynic effect ([1]; versus morphine or gabapentin) was “comparable to morphine or gabapentin”. The “clinically significant adverse events (AEs)” value [2] was “No clinically significant adverse events”, the “pain intensity (NRS 0-10) vs placebo” value ([3]; 8-hours IV infusion 1.8 mg/kg 0.5 h + 1.3 mg/kg/h […], through 24 hours post-emergence, FIG. 1) was “lower pain intensity” and the “opioid consumption (hydromorphone via PCA and rescue) vs placebo” value ([3]; all patients, FIG. 2) was “significant less opioid consumption”. The “number of PCA demands vs placebo” value ([3]; hydromorphone PCA, FIG. 3 and FIG. 4) was “significantly reduced the patients' need for postoperative analgesia; also recorded: significantly lower”, the “pain intensity vs placebo subgroup” value ([3]; subgroup of rescued patients (rescue hydromorphone in first 2 hours post-emergence), FIG. 7) was “reduced pain intensity” and the “decrease in hydromorphone use compared to placebo” value ([3]; subgroup of rescued patients, FIG. 7) was 40%. The “pain intensity vs placebo subgroup” value ([3]; subgroup with severe postoperative pain (predose PI 7), FIG. 5a) was “significant lower pain intensity”, the “hydromorphone (via PCA and/or rescue) requested and consumed vs placebo subgroup” value ([3]; subgroup with severe postoperative pain (predose PI 7), FIG. 5b) was “less hydromorphone (via PCA and/or rescue) was requested and consumed” and the “total amount of rescue opioid consumed vs placebo” value ([4]; 0-6, 0-12, 0-24 hours, FIG. 9) was “significant lower”. For the same compound, the “reduction of postoperative pain” value ([4]; 10-hours IV infusion 160 mg 0.5 h + 840 mg 9.5 h, starting approx. 30 minutes before induction of anesthesia) was “opioid comparable reduction of postoperative pain”, the “number of requests for rescue opioid vs placebo” value ([4]; IV morphine rescue, 0-24 hours, FIG. 8) was “significant lower” and the “proportion of opioid-free subjects vs placebo” value ([4]; during the first 12 hours post-emergence, FIG. 10) was “higher proportion of subjects that are opioid-free”. The “pain intensity (NRS 0-10) vs placebo” value ([5]; 10-hours IV infusion 160 mg 0.5 h + 840 mg 9.5 h after nerve block removal, FIG. 16a) was “lower pain intensity”, the “opioid consumption vs placebo” value ([5]; IV morphine rescue, all patients) was “less opioid consumption” and the “morphine requested and consumed vs placebo subgroup” value ([5]; subgroup predose PI≥7, FIG. 17a, 17b) was “significant less morphine was requested and consumed”. For the same compound, the “pain intensity vs placebo subgroup” value ([5]; subgroup with severe postoperative pain, predose PI≥7, FIG. 16b) was “significant lower pain intensity”, the “patients reporting perceptible pain relief” value ([5]; within 30 minutes after the start of infusion, FIG. 18) was “More than 50%” and the “mean NRS rest vs placebo” value ([6]; 10 h IV infusion 1.8 mg/kg 0.5 h + 1.3 mg/kg/hr 9.5 h, significance at T=4 (p<0.05), FIG. 12) was “lower at any given timepoint through 24 hrs post-emergence except at T=24”. For the same compound, the “opioid sparing (opioid consumed vs placebo)” value ([6]; for 10 hours post-emergence, p<0.01, FIG. 14) was 31.8%, the “number of PCA demand vs placebo” value ([6]; in vivo) was “significantly lessened at T=2 and T=10” and the “reduction of total amount of opioid consumed vs placebo” value ([6]; rescued patient group, 0-10 hr post-emergence) was 31.4%. The “reduction of total amount of opioid consumed vs placebo” value ([6]; rescued patient group, 10-24 hr post-emergence) was 35% and the “pain intensity (PIs) vs placebo” value ([6]; rescued patient group, significance at 4 hr (p<0.01) and 10 hr post-emergence (p<0.05), FIG. 15b) was “much lower”.
